# According to PubChem BioAssay AID1259334 (Broad Institute, 2017):
# Activity calls are given as the source filed them. Rule as the data show it: active = AC50 below about 11 µM.
# How the values were obtained:
# [1] = system: B cell line, TNFa signaling counterscreen reporter; assay: TNFa signaling inhibitors in B cell line, dose response, counter-screen (AID 1259334);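 also: cells stimulated with TNFa after compound preincubation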
# [2] = as above; settings: B cell line, TNFa signaling counterscreen reporter, hits give low values
smiles,measurement,setting,value
O=C(c1ccc(F)cc1)N1C[C@@H]2N[C@H](C1)C2c1ccc(/C=C/c2ccccc2)cc1 (stereo not given in full),AC50,[1],7.15 µM
same,max activity,[2]; at 3.5 µM,10.7% (inactive)
C[C@@H]1CCCCO[C@@H](CN(C)C(=O)C2CCCCC2)[C@@H](C)CN([C@H](C)CO)C(=O)c2cc(NS(=O)(=O)c3ccccc3)ccc2O1,max activity,[2]; at 0.38 µM,15.5% (inactive)
CC(C)(C)n1cc(C(=O)c2ccc3ccccc3c2O)cn1,max activity,[2]; at 1.1 µM,-24.4% (inactive)
Cc1cc(C)c2c(c1)SC1=NC(c3ccccc3)(C(F)(F)F)NC(=O)N12 (stereo not given),max activity,[2]; at 0.12 µM,-5.9% (inactive)
CN1C(=O)c2cc(NC(=O)c3cccc(Cl)c3)ccc2OC[C@@H]2O[C@@H](CC(=O)NC3CCCCC3)CC[C@H]21,max activity,[2]; at 10 µM,-5.27% (inactive)
Cc1noc(C)c1S(=O)(=O)Nc1ccc2c(c1)C(=O)N([C@@H](C)CO)C[C@H](C)[C@@H](CN(C)C(=O)Nc1cccc3ccccc13)OCCCC[C@H](C)O2,max activity,[2]; at 3.5 µM,-10.7% (inactive)
c1cncc(C2=NCCC2)c1,max activity,[2]; at 10 µM,38% (inactive)
O=C1C(=NO)CCc2ccccc21,max activity,[2]; at 3.5 µM,35.6% (inactive)
O=C(NCCC(c1ccccc1)c1ccco1)c1cccs1 (stereo not given),max activity,[2]; at 10 µM,46.8% (inactive)
COc1ccccc1C(=O)Nc1ccc2c(c1)C(=O)N(C)[C@H]1CC[C@H](CC(=O)Nc3cccc(C(C)C)c3)O[C@@H]1CO2,max activity,[2]; at 1.1 µM,37.4% (inactive)
N#C[C@H]1[C@@H](c2ccc(C#CC3CCCCC3)cc2)[C@@H](CO)N1C(=O)Nc1ccc(F)cc1,max activity,[2]; at 1.1 µM,10.8% (inactive)
O=C(c1ccncc1)N1C[C@@H]2N[C@H](C1)C2c1ccc(/C=C/c2ccccc2)cc1 (stereo not given in full),max activity,[2]; at 0.0135 µM,8.12% (inactive)
Oc1cc(O)cc(/C=C/c2ccc(O)c(O)c2)c1,max activity,[2]; at 0.38 µM,7.46% (inactive)
Cc1ccc2nc(-c3cc(-c4ccccc4)no3)cn2c1,max activity,[2]; at 1.1 µM,49.4% (inactive)
C=C1C(=O)OC2C=C(CO)CCC=C(CO)CC(OC(=O)C(C)C)C12 (stereo not given),max activity,[2]; at 10 µM,28.9% (inactive)
O=C1C=CC(=O)C2=C1C1c3ccccc3C2c2ccccc21,max activity,[2]; at 0.0135 µM,13% (inactive)
COc1cccc(S(=O)(=O)N(C)C[C@@H]2OCc3ccccc3-c3c(n(C)c4ccccc34)C(=O)N([C@H](C)CO)C[C@@H]2C)c1,max activity,[2]; at 1.1 µM,16.8% (inactive)
C[C@H](CO)N1C[C@H](C)[C@H](CN(C)CC2CCCCC2)Oc2ccc(NC(=O)Nc3ccc(C(F)(F)F)cc3)cc2C1=O,max activity,[2]; at 1.1 µM,8.34% (inactive)
CC12CC[C@H]3[C@@H](CCC4(O)C[C@H](O)CCC34/C=N/NC(=O)Cc3ccccc3)C1(O)CCC2C1=CC(=O)OC1 (stereo not given in full),max activity,[2]; at 3.5 µM,5.28% (inactive)
COc1cccc(S(=O)(=O)N(C)C[C@H]2OCc3ccccc3-c3c(n(C)c4ccccc34)C(=O)N([C@@H](C)CO)C[C@H]2C)c1,max activity,[2]; at 0.0046 µM,10.1% (inactive)
CCSc1ccc(-c2cc(NC=O)c3ncc(-c4cccc(C(=O)N(C)C)c4)n3c2)cc1,max activity,[2]; at 3.5 µM,45.8% (inactive)
COc1ccc2c3c([nH]c2c1)[C@H](CO)N(C(=O)Nc1cccc(F)c1)CC31CCN(S(=O)(=O)c2cccc(C)c2)CC1,max activity,[2]; at 1.1 µM,21.6% (inactive)
CC(=NNC(=S)N1CC2CCC(CC2)C1)c1nccs1,max activity,[2]; at 10 µM,43.9% (inactive)
CCCC(C)Sc1nc2c([nH]1)c(=S)n(C)c(=O)n2C (stereo not given),max activity,[2]; at 3.5 µM,58.9% (inactive)
C[C@@H]1CCCCO[C@@H](CN(C)CC2CCCCC2)[C@@H](C)CN([C@@H](C)CO)C(=O)c2cc(NC(=O)Nc3ccc(C(F)(F)F)cc3)ccc2O1,max activity,[2]; at 0.12 µM,11.4% (inactive)
Cc1ccc(C(CC(=O)NCc2ccco2)c2ccc(OC(C)C)cc2)cc1 (stereo not given),max activity,[2]; at 3.5 µM,36% (inactive)
Cc1ccccc1S(=O)(=O)N1C[C@@H]2N[C@H](C1)C2c1ccc(-c2cccc(C#N)c2)cc1 (stereo not given in full),max activity,[2]; at 10 µM,22.9% (inactive)
C[C@@H]1CN([C@H](C)CO)C(=O)Cc2cc(NC(=O)Cc3cn(C)c4ccccc34)ccc2O[C@H]1CN(C)Cc1ccc(C(F)(F)F)cc1,max activity,[2]; at 11 µM,-10.7% (inactive)
CCCNC(=O)N1[C@H](C#N)[C@@H](c2ccc(-c3cccc(OC)c3)cc2)[C@H]1CO,max activity,[2]; at 10 µM,11.7% (inactive)
